We go through 28 molecules from patent US20230303540A1 (Merck Sharp & Dohme LLC, priority 2020, published 2023).

Structures are written as SMILES.

This assay has as its target GST-tagged truncated human mutant G2019S LRRK2 (Homo sapiens, UniProt Q5S007, G2019S). The experiment in a line: LRRK2 G2019S Km ATP LanthaScreen assay. It counts as biochemical. The settings on record: 134 μM ATP (Km ATP), LRRKtide substrate, mean IC50 values; read-out: LRRK2 pIC50 (converted). Put shortly:
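Compound preincubated 15 min at room temperature with enzyme in pH 8.5 Tris buffer (10 mM MgCl2). Then a 90 min reaction at ambient temperature with 134 μM (Km) ATP and fluorescein-LRRKtide. EDTA stop, Tb anti-phospho antibody TR-FRET; […]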
A general note: TR-FRET usually uses a lanthanide donor and a delayed reading to cut background.
Consider `CC1(N2CCN(c3cc4nc(Nc5cnn(C6CC6)c5Cl)ncc4cc3Cl)CC2)COCC1O` (single isomer, unassigned) [Ex-1.46, (3S,4S or 3R,4R)-4-(4-{6-chloro-2-[5-chloro-1-cyclopropyl-1H-pyrazol-4-yl)amino]quinazolin-7-yl}piperazin-1-yl)-4-methyloxolane-3-ol], for which the IC50 is 0.625 nM.

For the molecule `Cc1cc2cnc(Nc3cnn(C4CC4)c3Cl)nc2cc1N1CCN(C2(C)COC2)CC1` [Ex-5.10, N-(5-chloro-1-cyclopropyl-1H-pyrazol-4-yl)-6-methyl-7-[4-(3-methyloxetan-3-yl)piperazin-1-yl]quinazolin-2-amine], the IC50 was 5.67 nM.

In the case of `OC1COCC1N1CCN(c2cc3nc(Nc4cnn(C(F)F)c4)ncc3cc2Cl)CC1` (single isomer, unassigned) [Ex-6.46, (3S,4S) or (3R,4R) 4-(4-(6-chloro-2-((1-(difluoromethyl)-1H-pyrazol-4-yl)amino)quinazolin-7-yl)piperazin-1-yl)tetrahydrofuran-3-ol], the IC50 is 18.4 nM.

Regarding `Cc1c(Nc2ncc3cc(Cl)c(N4CCN(C5COC(C)(C)C5)CC4)cc3n2)cnn1C1CC1` (single isomer, unassigned) [Ex-12.5, 6-chloro-N-(1-cyclopropyl-5-methyl-1H-pyrazol-4-yl)-7-(4-(5,5-dimethyltetrahydrofuran-3-yl)piperazin-1-yl)quinazolin-2-amine], the IC50 is 0.56 nM.

For `Cn1ncc(Nc2ncc3cc(Cl)c(N4CCN(C5COCC5O)CC4)cc3n2)c1Cl` (single isomer, unassigned) [Ex-6.7, (3S,4S) or (3R,4R) 4-(4-{6-chloro-2-[(5-chloro-1-methyl-1H-pyrazol-4-yl)amino]quinazolin-7-yl}piperazin-1-yl)oxolan-3-ol], the IC50 is 1.59 nM.

On to `O[C@@H]1COC[C@@H]1N1CCN(c2cc3nc(Nc4cnn(C5CC5)c4Cl)ncc3cc2Cl)CC1` (single isomer, unassigned) [Ex-3.52, (3R,4R) or (3S,4S) 4-(4-{6-chloro-2-[(5-chloro-1-cyclopropyl-1H-pyrazol-4-yl)amino]quinazolin-7-yl}piperazin-1-yl)oxolan-3-ol], for which the IC50 was 0.887 nM.

As to `CC1(n2ncc(Nc3ncc4cc(Cl)c(N5CCN(C6COC6)CC5)cc4n3)c2Cl)CC1` [Ex-3.22, 6-chloro-N-[5-chloro-1-(1-methylcyclopropyl)-1H-pyrazol-4-yl]-7-[4-(oxetan-3-yl)piperazin-1-yl]quinazolin-2-amine], the IC50 was 0.954 nM.

`CC1(N2CCN(c3cc4cc(Nc5cnn(C6CC6)c5Cl)ncc4cc3Cl)CC2)COCC1O` (single isomer, unassigned) [Ex-6.54, (3S,4S) or (3R,4R) 4-(4-(7-chloro-3-((5-chloro-1-cyclopropyl-1H-pyrazol-4-yl)amino)isoquinolin-6-yl)piperazin-1-yl)-4-methyltetrahydrofuran-3-ol]: the IC50 is 1.21 nM.

As to `CCn1ncc(Nc2ncc3ccc(N4C(=O)CCC4C)cc3n2)c1C` (single isomer, unassigned) [Ex-7.18, (R) or (S) 1-{2-[(1-ethyl-5-methyl-1H-pyrazol-4-yl)amino]quinazolin-7-yl}-5-methylpyrrolidin-2-one], the IC50 was 8.73 nM.

Consider `Cc1c(Nc2ncc3cc(Cl)c(N4CCC(C)(O)C(C)C4)cc3n2)cnn1C1CC1` (single isomer, unassigned) [Ex-3.50, (3R,4R) or (3S,4S) or (3R,4S) or (3S,4R) 1-{6-chloro-2-[(1-cyclopropyl-5-methyl-1H-pyrazol-4-yl)amino]quinazolin-7-yl}-3,4-dimethylpiperidin-4-ol], for which the IC50 was 0.821 nM.

As for `Cc1cc2cnc(Nc3cnn(C4CC4(F)F)c3C)nc2cc1N1CCN(C2(C)COCC2O)CC1` (single isomer, unassigned) [Ex-5.3, (3S,4S) or (3R,4R) 4-(4-(2-((1-(2,2-(R) or (S)difluorocyclopropyl)-5-methyl-1H-pyrazol-4-yl)amino)-6-methylquinazolin-7-yl)piperazin-1-yl)-4-methyltetrahydrofuran-3-ol], the IC50 was 0.31 nM.

With `Cc1c(Nc2ncc3cc(Cl)c(N4CCN(C5(C)COC(C)(C)C5)CC4)cc3n2)cnn1C1CC1` (single isomer, unassigned) [Ex-12.3], the IC50 was 186 nM.

As to `Cc1cc2cnc(Nc3cnn(C45CC(F)(C4)C5)c3Cl)nc2cc1N1CCNCC1` [Ex-5.15, N-(5-chloro-1-(3-fluorobicyclo[1.1.1]pentan-1-yl)-1H-pyrazol-4-yl)-6-methyl-7-(piperazin-1-yl)quinazolin-2-amine], the IC50 was 25.1 nM.

Regarding `OC1COCC12CCN(c1cc3nc(Nc4cnn(C5CC5(F)F)c4Cl)ncc3cc1Cl)CC2` (single isomer, unassigned) [Ex-3.56], the IC50 is 3.56 nM.

With `CC1(N2CCN(c3cc4nc(Nc5cnn(C(F)F)c5Cl)ncc4cc3Cl)CC2)COCC1O` (single isomer, unassigned) [Ex-3.59, (3R,4R) or (3S,4S) 4-(4-(6-chloro-2-((5-chloro-1-(difluoromethyl)-1H-pyrazol-4-yl)amino)quinazolin-7-yl)piperazin-1-yl)-4-methyltetrahydrofuran-3-ol], the IC50 is 0.178 nM.

Regarding `CCn1ncc(Nc2ncc3ccc(N4C(=O)OCC4C4CC4)cc3n2)c1C` (single isomer, unassigned) [Ex-7.15, (R) or (S) 4-cyclopropyl-3-{2-[(1-ethyl-5-methyl-1H-pyrazol-4-yl)amino]quinazolin-7-yl}-1,3-oxazolidin-2-one], the IC50 was 9.26 nM.

On to `Cc1c(Nc2cc3cc(N4CCN(C5(C)COCC5O)CC4)c(Cl)cc3cn2)cnn1C1CC1(F)F` (single isomer, unassigned) [Ex-6.53, (3S,4S) or (3R,4R) 4-(4-(7-chloro-3-((1-(2,2-difluorocyclopropyl)-5-methyl-1H-pyrazol-4-yl)amino)isoquinolin-6-yl)piperazin-1-yl)-4-methyltetrahydrofuran-3-ol], for which the IC50 was 0.522 nM.

`CC(C)(O)Cn1ncc(Nc2ncc3cc(Br)c(NCC4CC4)nc3n2)c1Cl` [Ex-15.1, 1-[4-({6-Bromo-7-[(cyclopropylmethyl)amino]pyrido[2,3-d]pyrimidin-2-yl}amino)-5-chloro-1H-pyrazol-1-yl]-2-methylpropan-2-ol]: the IC50 is 36.7 nM.

On to `Cc1cc2cnc(Nc3cnn(C4CC4)c3Cl)nc2cc1N1CCN(C2COCC2O)CC1` (single isomer, unassigned) [Ex-5.8, (3S,4S) or (3R,4R) 4-(4-{2-[(5-chloro-1-cyclopropyl-1H-pyrazol-4-yl)amino]-6-methylquinazolin-7-yl}piperazin-1-yl)oxolan-3-ol], for which the IC50 was 0.17 nM.

`Cc1c(Nc2ncc3cc(Cl)c(N4CCN(C5(C)COCC5O)CC4)cc3n2)cnn1C1CC1(F)F` (single isomer, unassigned) [Ex-6.40, (3S,4S) or (3R,4R) 4-[4-(6-chloro-2-{[1-(2,2-(R) or (S)difluorocyclopropyl)-5-methyl-1H-pyrazol-4-yl]amino}quinazolin-7-yl)piperazin-1-yl]-4-methyloxolan-3-ol]: the IC50 is 0.352 nM.

Regarding `COC1CCC1n1ncc(Nc2ncc3cc(Cl)c(N4CCC(C)(O)CC4)cc3n2)c1C` (single isomer, unassigned) [Ex-6.20, 1-[6-chloro-2-({1-[(1R,2R) or (1S,2S)-2-methoxycyclobutyl]-5-methyl-1H-pyrazol-4-yl}amino)quinazolin-7-yl]-4-methylpiperidin-4-ol], the IC50 was 2.53 nM.

For the molecule `Cc1c(Nc2ncc3cc(Cl)c(N4CCC(O)CC4)cc3n2)cnn1C1CC1` [Ex-3.14, 1-{6-chloro-2-[(1-cyclopropyl-5-methyl-1H-pyrazol-4-yl)amino]quinazolin-7-yl}piperidin-4-ol], the IC50 was 0.106 nM.

Consider `CN1CCC2(CCN(c3cc4nc(Nc5cnn(C6(C)CC6)c5Cl)ncc4cc3Cl)C2)C1` (stereo not shown) [Ex-4.42, 6-chloro-N-[5-chloro-1-(1-methylcyclopropyl)-1H-pyrazol-4-yl]-7-(7-methyl-2,7-diazaspiro[4.4]nonan-2-yl)quinazolin-2-amine], for which the IC50 was 6.55 nM.

Consider `CC(C)Nc1ccc2cnc(Nc3cnn(C4CCN(C5(C)COC5)CC4)c3Cl)nc2c1Cl` [Ex-3.53, 8-chloro-N~2~-{5-chloro-1-[1-(3-methyloxetan-3-yl)piperidin-4-yl]-1H-pyrazol-4-yl}-N~7~- (propan-2-yl)quinazoline-2,7-diamine], for which the IC50 was 6.88 nM.

As to `CNc1cc2nc(Nc3cnn(C4CCN(C5(C)COC5)CC4)c3Cl)ncc2cc1Cl` [Ex-3.44, 6-chloro-N~2~-{5-chloro-1-[1-(3-methyloxetan-3-yl)piperidin-4-yl]-1H-pyrazol-4-yl}-N~7~-methyl-quinazoline-2,7-diamine], the IC50 is 19.5 nM.

With `OC[C@H]1CCN(c2cc3nc(Nc4cnn(CC(F)F)c4Cl)ncc3cc2Cl)C1` [Ex-1.20, [(3S)-1-(6-chloro-2-{[5-chloro-1-(2,2-difluoroethyl)-1H-pyrazol-4-yl]amino}quinazolin-7-yl)pyrrolidin-3-yl]methanol], the IC50 was 8.23 nM.

On to `Cn1cc(Nc2ncc3ccc(N4C(=O)C5CCC4C5)cc3n2)c(C(F)(F)F)n1` (stereo not shown) [Ex-7.10, 2-(2-{[1-methyl-3-(trifluoromethyl)-1H-pyrazol-4-yl]amino}quinazolin-7-yl)-2-azabicyclo[2.2.1]heptan-3-one], for which the IC50 was 5.14 nM.

In the case of `OC1COCC1N1CCN(c2cc3nc(Nc4cnn(C5CC5(F)F)c4Cl)ncc3cc2Cl)CC1` (single isomer, unassigned) [Ex-6.29, (3S,4S) or (3R,4R) 4-[4-(6-chloro-2-{[5-chloro-1-(2,2-(R) or (S)difluorocyclopropyl)-1H-pyrazol-4-yl]amino}quinazolin-7-yl)piperazin-1-yl)oxolan-3-ol], the IC50 is 15.2 nM.
